Conditions: 100 kPa, Liquid, Capillary tube (Ostwald / Ubbelohde) method

CCCCCCCCCCl [1-chlorononane]
Conditions	kinematic viscosity [m2/s]
296.21 K	1.68e-06
300.65 K	1.57e-06
313.15 K	1.3e-06
318.15 K	1.21e-06
323.15 K	1.13e-06
328.15 K	1.07e-06
333.15 K	1e-06
338.15 K	9.48e-07
343.15 K	8.97e-07
348.15 K	8.52e-07
353.15 K	8.09e-07
358.15 K	7.72e-07
363.15 K	7.37e-07
368.15 K	7.04e-07
373.15 K	6.73e-07
383.15 K	6.19e-07
393.15 K	5.72e-07
403.15 K	5.31e-07
413.15 K	4.94e-07

CCCCCCI [1-iodohexane]
Conditions	kinematic viscosity [m2/s]
297.25 K	9.1e-07
298.15 K	9.03e-07
298.25 K	9e-07
300.25 K	8.74e-07
318.15 K	7.01e-07
319.15 K	6.89e-07
323.15 K	6.63e-07
328.15 K	6.26e-07
333.15 K	5.97e-07
338.15 K	5.68e-07
343.15 K	5.39e-07
348.15 K	5.18e-07
358.15 K	4.74e-07
368.15 K	4.37e-07
383.15 K	3.91e-07
393.15 K	3.64e-07
413.15 K	3.19e-07
423.15 K	3.01e-07

CCCCCCCI [1-iodoheptane]
Conditions	kinematic viscosity [m2/s]
296.35 K	1.18e-06
297.2 K	1.17e-06
303.5 K	1.06e-06
313.2 K	9.24e-07
318.15 K	8.67e-07
323.15 K	8.12e-07
328.15 K	7.66e-07
333.15 K	7.25e-07
338.15 K	6.87e-07
343.15 K	6.53e-07
348.15 K	6.2e-07
353.15 K	5.91e-07
363.15 K	5.41e-07
368.15 K	5.17e-07
373.15 K	4.98e-07
378.15 K	4.76e-07
383.15 K	4.58e-07
393.15 K	4.24e-07
403.15 K	3.96e-07
413.15 K	3.7e-07
423.15 K	3.46e-07

Reference: the NIST ThermoML archive (doi:10.1021/je060158k)
